Patent US8178509B2, “Method to treat sickle cell disease” (University of Virginia Patent Foundation, priority 2006, dated 2012)

Columns and labels:
[1] = test system: leukocyte interactions with the endothelium; test: Intravital microscopy of exteriorized cremaster muscle, leukocyte adhesion; assay type: in vivo, NY-S (NY1DD) mice; details: no hypoxia
From the text: An exteriorized cremaster muscle preparation was used to study the microcirculation in vivo as a means of assaying the effect of the test compounds, e.g., ATL146e, on leukocyte interactions with the endothelium. […] In this experiment, mice were not stressed with hypoxia, but the manipulation of the cremaster tissue for microscopic examination itself produces some rolling and adherence of leukocytes, probably due to release of chemokines from damaged tissue. Adherent leukocytes were defined as those which moved less than one circumference in an observational period (30 seconds/vessel). […]
Microscopic observations were made on a Zeiss intravital microscope (Axioskop, Carl Zeiss, Inc., Thomwood, N.Y.) with a saline immersion objective (SW 40/0.75) visualized under bright field illumination. […] Randomly selected venules with diameters between 19 and 54 μm were recorded for 1.5 minutes.
A MicroMotion DC30 video compression card (Pinnacle Systems, Mountain View, Calif.) was used to digitize video recordings from a JVC HR-53600U VHS recorder into a Macintosh computer (Adobe Premiere software). Digitized video clips were analyzed with the public domain NIH image program with custom-written macros. […] Individual comparisons between groups were calculated using a one-tailed t test with p<0.05.

NY-S (NY1DD) mice [2] = test: Unrestrained whole-body plethysmography during hypoxic stress; assay type: in vivo; details: 3 hour hypoxic stress (8% O2), Alzet pump, 10 ng/kg/min, overnight
Experimental: Clinicians have disclosed that breathing disorders can occur in SCD patients during vaso-occlusive crisis (VOC). […] Pain-associated shallow breathing during sickle crisis may contribute to the pathogenesis of acute chest syndrome. To characterize the extent of hypoxia-induced lung injury in NY-S (NY1DD) mice, pulmonary function was assessed using unrestrained whole-body plethysmography during and after exposure to hypoxic air. Naïve NY-S (NY1DD) mice were compared to NY-S (NY1DD) mice which had been treated with ATL146e (Alzet pump, 10 ng/kg/min, overnight). […] Plexiglas chambers (4 in diameter) are connected to a direct airflow sensor (Buxco Max II, Buxco Electronics). Constant airflow through the chambers is maintained at 70 ml/min. The flow signals are amplified by a channel amplifier (EMKA Technologies), converted to a digital signal, and recorded using IOX software (EMKA Technologies). The respiratory parameters minute ventilation (MV, ml/min), respiratory frequency (f, breaths/min), expiratory time (TE, msec), and relaxation time (RT, msec) are calculated and plotted as change over time. The chambers are calibrated by injecting 1 ml of air. The mice are placed unrestrained into the chambers and after a 30 min adjustment period, respiratory activity is recorded while the animal breathes either ambient air or hypoxic gas (8% O2).

NY-S (NY1DD) mice [3] = test: Gamma camera imaging of hypoxia-sensitive tracer BRU59-21 in lungs; assay type: in vivo; details: 3 hours hypoxia (10% O2)/1 hour reoxygenation; Alzet mini-pump, 10 ng/kg/min, O/N; untreated vs treated
Experimental: Animals were subject to 3 hours hypoxia (10% O2)/1 hour reoxygenation. After 30 minutes of reoxygenation the mice were given a bolus intra-jugular injection of BRU59-21 (˜300 μCi). At the end of the reoxygenation period planar gamma camera images were taken with a ten minute acquisition window. The images in FIG. 7 show tracer accumulation in the tissues of hypoxic C57BL/6 and NY-S (NY1DD) mice. […] There is a large non-specific signal present in the abdomen due to hepatic metabolism and clearance of the tracer via the intestinal tract. Anterior to the abdominal signal is a bilateral signal which is absent from the C57/B6 mice and localized to the lungs in the NY-S (NY1DD) mouse.
C57BL/6 and NY-S (NY1DD) mice were subject to 3 hour hypoxia/1 hour reperfusion (10% O2). Thirty minutes after the start of the reperfusion period the mice were anesthetized (ketamine 125 mg/kg; xylazine 12.5 mg/kg, IP) and given a bolus intra jugular injection of BRU59-21 (˜300 μCi). At the end of the reperfusion period planar gamma camera images were collected. Anesthetized mice were imaged side-by-side in planar mode directly on the inverted face of a low energy, high resolution (LEHR) collimator mounted on a Siemens Orbiter gamma camera (Siemens Medical Solutions USA, Inc., Malvern Pa.). […]

platelets = test: Platelet aggregation (singlet loss) in platelet-rich plasma after in vivo pretreatment, ADP activation; parameters: species or system NY-S (NY1DD) mice; details: pretreated in vivo, Alzet mini-pump, 10 ng/kg/min, O/N; all doses of ADP added in vitro
Experimental: Adenosine 5′-diphosphate (ADP) is a critical mediator of platelet activation. Two members of the P2Y-receptor family (P2Y1, P2Y12) are responsible for the initiation and amplification of the aggregation response.
Mice were first anesthetized with the use of a vaporizer (Vapomatic, A.M. Bickford, INC., Wales Center, N.Y.) delivering 1.5% isoflurane (Abbott Laboratories, Chicago, Ill.). The animals were ventilated with 100% oxygen (tidal volume 0.3 mL; rate 125 breaths/min; respiratory/expiratory ratio 1; positive end-expiratory pressure (PEEP) was between 5 and 10 cm H2O) at a low rate of 0.8 L/min via an animal ventilator (Columbus Instruments, Columbus, Ohio).
Platelet isolation. […]
Platelet aggregation assay—single particle counting. […] The reaction was quenched with glutaraldehyde (1%), and platelet aggregation then evaluated by the loss of platelet singlets, using a resistive-particle counter. The loss of platelet singlets was expressed as a percent value of the control platelet count (platelet count in PRP incubated for 10 minutes in 37° C. in the absence of shear forces).

NY-S (NY1DD) mice [4] = test: Pulmonary histology (H&E), hypoxia-induced vascular congestion; assay type: in vivo; details: 3 hour hypoxia (10% O2); Alzet mini-pump, 10 ng/kg/min, overnight, started prior to hypoxic stress
Experimental: Under normoxic conditions, while the lungs of the wild type mice are clear, there is a high incidence of focal vascular congestion in the NY-S (NY1DD) mice (FIGS. 6A & 6B, see arrows). The disseminated pink color throughout the section may be due to elevated numbers of possibly adherent capillary red cells. The extent of vascular congestion is exacerbated in the NY-S (NY1DD) mice following 3 hour of hypoxia (10% O2; FIG. 6c). The increased susceptibility of the NY-S (NY1DD) mice to hypoxia-induced lung injury is evidenced both as an increase in the total area of involvement and the size of the vessels congested (see arrow, FIG. 6C).

C57BL/6 MAECs = test: Static WEHI monocyte adhesion assay on murine aortic endothelial cells; assay type: cell-based, C57BL/6 mice; details: murine TNFα 10 U/ml, positive control
Experimental: Adhesion of both sickle RBCs and leukocytes in SCD is believed dependent on endothelial activation. […] Murine aortic endothelial cells (MAECs) were prepared from C57BL/6 and NY-S (NY1DD) mice. In a static adhesion assay using WEHI monocytes activation of the endothelium as manifested by increasing monocyte adhesion can be quantified. MAECs prepared from C57BL/6 mice form a monolayer which is not highly activated as assessed by the small number of adherent monocytes. As a positive control for endothelial activation C57BL/6 MAECs were stimulated with murine TNFα (10 U/ml). […] Clearly, the endothelium of NY-S (NY1DD) sickle mice is in a state of activation at baseline.
Aortic endothelial cells from C57BL/6J and NY-S (NY1DD) mice were harvested from the aorta under sterile conditions. A monocyte adhesion assay that utilizes primary MAECs and WEHI78/24 cells were performed according to Hatley et al. WEHI cells are labeled with calcein-AM using standard methods described by the manufacturer (Molecular Probes). For the adhesion assay, MAECs were cultured to confluency in a 48-well plate and incubated with 35,000 calcein-labeled WEHI cells/well for 30 min at 37° C. Non-adherent cells were rinsed, and adherent cells were fixed with 1% glutaraldehyde. The number of adherent monocytes within a 10×10 eyepiece grid at 40× magnification was counted using an epifluorescence microscopy. […]

CCNC(=O)C1OC(n2cnc3c(N)nc(C#CCC4CCC(C(=O)OC)CC4)nc32)C(O)C1O (centres unmarked) [ATL146e, 4-{3-[6-Amino-9-(5-ethylcarbamoyl-3,4-dihydroxy-tetrahydro-furan-2-yl)-9H-purin-2-yl]-prop-2-ynyl}cyclohexanecarboxylic acid methyl ester]
leukocyte adhesion (adherent leukocytes/field) ([1]; bolus injection, intraperitoneal, 5 μg/kg, 30 minutes prior to cremaster exteriorization): pronounced reduction in leukocyte adhesion | leukocyte adhesion (adherent leukocytes/field) ([1]; infusion, Alzet mini-pump, 10 ng/kg/min, overnight): pronounced reduction in leukocyte adhesion | minute volume (NY-S (NY1DD) mice [2]): respiratory stress of hypoxia was alleviated | breathing frequency (NY-S (NY1DD) mice [2]; n=2 each group): significantly reduced | lung-specific BRU59-21 signal intensity in thoracic cavity (qualitative) (NY-S (NY1DD) mice [3]): significantly more lung-specific signal in the untreated mice | platelet activation in platelet rich plasma (platelets): reduced to below control levels | severity of hypoxia-induced vascular congestion in lung (NY-S (NY1DD) mice [4]): significantly reduced

TNFα
number of monocytes captured (endothelial activation) (C57BL/6 MAECs): three-fold increase
